Results on 25 molecules are retold here after patent US9296723B2, “NAMPT inhibitors” (AbbVie Inc., priority 2012, dated 2016).

Molecules are shown by their SMILES.

In one test the test system is PC3 cells. Briefly: NAMPT Cell Proliferation Assay (Cell Titer Glo). Format: cell-based. Conditions: Homo sapiens, PC-3, 120 h, incubated 5 days, cell viability. A digest of the protocol: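 Viability measured by Cell Titer Glo luminescence after 5-day exposure of attached PC3 cells to compound, dosed as 10-fold serial dilutions ([…]) in RPMI/10% FBS at 37 °C and 5% CO2. Percent inhibition fitted to sigmoidal dose-response curves for IC50.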

The target in test [1] is T1, NAMPT (Homo sapiens, UniProt P43490). Briefly: TR-FRET Binding Assay of NAMPT with PRPP. Conditions: 2 nM NAMPT, 2 nM probe, 200 µM PRPP and 2.5 mM ATP, equilibrated 16 hours. The essentials:
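Substrates present: PRPP at 200 µM and ATP at 2.5 mM, final, alongside 2 nM enzyme, 2 nM tracer and 1 nM terbium anti-His donor in 2% DMSO. A 16-hour equilibration preceded the time-resolved FRET read, allowing compounds to be enzymatically modified.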
(In general: In TR-FRET formats the signal depends on donor and acceptor labels being close together.)

For test [2], the target named is T1, NAMPT. Briefly: Time-Resolved Fluorescence Resonance Energy Transfer (TR-FRET) Binding Assay of NAMPT. Conditions: 6.8 nM NAMPT, 200 nM probe, equilibrated 3 hours, no substrates. The essentials:
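IC50s come from four-parameter logistic fits of control-normalized Em520/Em495 TR-FRET ratios (Ex 337 nm) against compound concentration. Before reading, enzyme, probe, antibody and compound equilibrated for 3 h at room temperature.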

T1 sequence (P43490 whole entry): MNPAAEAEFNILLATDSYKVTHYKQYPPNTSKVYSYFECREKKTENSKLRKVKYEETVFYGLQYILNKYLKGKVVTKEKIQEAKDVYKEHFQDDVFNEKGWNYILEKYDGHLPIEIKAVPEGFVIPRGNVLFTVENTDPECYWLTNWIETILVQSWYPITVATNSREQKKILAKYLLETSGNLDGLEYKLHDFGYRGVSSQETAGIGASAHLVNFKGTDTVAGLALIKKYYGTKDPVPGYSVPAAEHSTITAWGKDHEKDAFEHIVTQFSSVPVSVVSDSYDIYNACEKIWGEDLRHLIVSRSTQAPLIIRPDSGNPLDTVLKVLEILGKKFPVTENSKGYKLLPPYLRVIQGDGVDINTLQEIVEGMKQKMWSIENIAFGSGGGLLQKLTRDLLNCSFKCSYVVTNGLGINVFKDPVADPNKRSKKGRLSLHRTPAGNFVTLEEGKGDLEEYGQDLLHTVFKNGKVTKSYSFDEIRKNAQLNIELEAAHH

For orientation: IC50 means the concentration that inhibits the measured activity by half. Lower therefore signals greater potency in that assay. As for `CC(C)CCC(=O)N1CCC(c2ccc(NC(=O)N3CC(c4cccnc4)C3)cc2)CC1` [Example 166, N-{4-[1-(4-methylpentanoyl)piperidin-4-yl]phenyl}-3-(pyridin-3-yl)azetidine-1-carboxamide], the IC50 was 66.4 nM with PC3 cells, 0.337 nM on NAMPT [1] and 17.2 nM at NAMPT [2].
For `CC(C)(C)OC(=O)N1CC(c2ccc(NC(=O)N3CC(c4cccnc4)C3)cc2)C1` [Example 62, tert-butyl 3-[4-({[3-(pyridin-3-yl)azetidin-1-yl]carbonyl}amino)phenyl]azetidine-1-carboxylate], the IC50 with PC3 cells was determined as 69.7 nM; at NAMPT [1], 0.467 nM; on NAMPT [2], 91.5 nM.
As to `O=C(Nc1ccc(O[C@@H]2CCN(C(=O)c3ccco3)C2)cc1)N1CC(c2cccnc2)C1` [Example 326, N-(4-{[(3R)-1-(furan-2-ylcarbonyl)pyrrolidin-3-yl]oxy}phenyl)-3-(pyridin-3-yl)azetidine-1-carboxamide], the IC50 in the test on PC3 cells was 16.5 nM; on NAMPT [1], 0.294 nM; on NAMPT [2], 32.2 nM.
On to `CC(C)(C)CCN1CCC(c2ccc(NC(=O)N3CC(c4cccnc4)C3)cc2)CC1` [Example 233, N-{4-[1-(3,3-dimethylbutyl)piperidin-4-yl]phenyl}-3-(pyridin-3-yl)azetidine-1-carboxamide], for which the IC50 in the test on PC3 cells was determined as 970 nM; on NAMPT [1], 0.335 nM; on NAMPT [2], 653 nM.
Take `CC(C)C(C)C(=O)N1CCC(c2ccc(NC(=O)N3CC(c4cccnc4)C3)cc2)C1` (stereo not drawn) [Example 296, N-{4-[1-(2,3-dimethylbutanoyl)pyrrolidin-3-yl]phenyl}-3-(pyridin-3-yl)azetidine-1-carboxamide]: the IC50 stood at 19.8 nM in the test on PC3 cells, 0.243 nM on NAMPT [1] and 26.4 nM on NAMPT [2].
For `O=C(CCN1CCCCC1)N1CCC(c2ccc(NC(=O)N3CC(c4cccnc4)C3)cc2)C1` (stereo not drawn) [Example 287, N-(4-{1-[3-(piperidin-1-yl)propanoyl]pyrrolidin-3-yl}phenyl)-3-(pyridin-3-yl)azetidine-1-carboxamide], in that order: 37.4 nM, 0.189 nM and 30.1 nM.
For `O=C(CC1CCOCC1)N1CC[C@H](Oc2ccc(NC(=O)N3CC(c4cccnc4)C3)cc2)C1` [Example 88, 3-(pyridin-3-yl)-N-(4-{[(3S)-1-(tetrahydro-2H-pyran-4-ylacetyl)pyrrolidin-3-yl]oxy}phenyl)azetidine-1-carboxamide], in that order: 109 nM, 0.58 nM and 269 nM.
For `O=C(Nc1ccc(O[C@@H]2CCN(C(=O)c3ccoc3)C2)cc1)N1CC(c2cccnc2)C1` [Example 303, N-(4-{[(3R)-1-(furan-3-ylcarbonyl)pyrrolidin-3-yl]oxy}phenyl)-3-(pyridin-3-yl)azetidine-1-carboxamide], in that order: 13.5 nM, 0.595 nM and 40.5 nM.
For the molecule `CCCC(=O)N1CCC(Oc2ccc(NC(=O)N3CC(c4cccnc4)C3)cc2)CC1` [Example 43, N-{4-[(1-butanoylpiperidin-4-yl)oxy]phenyl}-3-(pyridin-3-yl)azetidine-1-carboxamide], the figures for the IC50 with PC3 cells, at NAMPT [1] and on NAMPT [2] were 28 nM, 0.234 nM and 23.7 nM, respectively.
`O=C(Nc1ccc(OC2CN(C(=O)[C@H]3CCCO3)C2)cc1)N1CC(c2cccnc2)C1` [Example 28, 3-(pyridin-3-yl)-N-[4-({1-[(2R)-tetrahydrofuran-2-ylcarbonyl]azetidin-3-yl}oxy)phenyl]azetidine-1-carboxamide]: the figures for the IC50 with PC3 cells, at NAMPT [1] and at NAMPT [2] were 64.2 nM, 0.218 nM and 77.2 nM, respectively.
For `O=C(CCN1CCOCC1)N1CC[C@@H](Oc2ccc(NC(=O)N3CC(c4cccnc4)C3)cc2)C1` [Example 321, N-[4-({(3R)-1-[3-(morpholin-4-yl)propanoyl]pyrrolidin-3-yl}oxy)phenyl]-3-(pyridin-3-yl)azetidine-1-carboxamide], in that order: 119 nM, 0.246 nM and 176 nM.
For `O=C(Nc1ccc(C2CCN(C(=O)C3CCCC3)CC2)cc1)N1CC(c2cccnc2)C1` [Example 180, N-{4-[1-(cyclopentylcarbonyl)piperidin-4-yl]phenyl}-3-(pyridin-3-yl)azetidine-1-carboxamide], in that order: 67.7 nM, 0.284 nM and 21.3 nM.
Regarding `COCCOCC(=O)N1CC(Oc2ccc(NC(=O)N3CC(c4cccnc4)C3)cc2)C1` [Example 118, N-[4-({1-[(2-methoxyethoxy)acetyl]azetidin-3-yl}oxy)phenyl]-3-(pyridin-3-yl)azetidine-1-carboxamide], the IC50 with PC3 cells was 77.7 nM; at NAMPT [1], 0.324 nM; on NAMPT [2] it was 36 nM.
For the molecule `O=C(Nc1ccc(OC2CCN(C(=O)c3cccs3)CC2)cc1)N1CC(c2cccnc2)C1` [Example 32, 3-(pyridin-3-yl)-N-(4-{[1-(thiophen-2-ylcarbonyl)piperidin-4-yl]oxy}phenyl)azetidine-1-carboxamide], the IC50 came to 58.7 nM in the test on PC3 cells, 0.209 nM on NAMPT [1] and 18.8 nM on NAMPT [2].
As for `CC(C)(O)C(=O)N1CCC(c2ccc(NC(=O)N3CC(c4cccnc4)C3)cc2)C1` (stereo not drawn) [Example 70, N-{4-[1-(2-hydroxy-2-methylpropanoyl)pyrrolidin-3-yl]phenyl}-3-(pyridin-3-yl)azetidine-1-carboxamide], the IC50 was 73.1 nM in the test on PC3 cells, 0.421 nM at NAMPT [1] and 92.2 nM on NAMPT [2].
With `O=C(Nc1ccc(C2CCN(C(=O)c3cccs3)C2)cc1)N1CC(c2cccnc2)C1` (stereo not drawn) [Example 284, 3-(pyridin-3-yl)-N-{4-[1-(thiophen-2-ylcarbonyl)pyrrolidin-3-yl]phenyl}azetidine-1-carboxamide], the IC50 came out at 22.3 nM in the test with PC3 cells, 0.204 nM at NAMPT [1] and 18.3 nM on NAMPT [2].
For `CC(C)(C)OC(=O)N1CCC(c2ccc(NC(=O)N3CC(c4cccnc4)C3)cc2)C1` (stereo not drawn) [Example 59, tert-butyl 3-[4-({[3-(pyridin-3-yl)azetidin-1-yl]carbonyl}amino)phenyl]pyrrolidine-1-carboxylate], in that order: 68.5 nM, 0.364 nM and 38.5 nM.
For `O=C(Nc1ccc(C2CN(C(=O)C3CCCC3)C2)cc1)N1CC(c2cccnc2)C1` [Example 214, N-{4-[1-(cyclopentylcarbonyl)azetidin-3-yl]phenyl}-3-(pyridin-3-yl)azetidine-1-carboxamide], in that order: 43.7 nM, 0.289 nM and 75.8 nM.
For `O=C(Nc1ccc(C2CCN(C(=O)C3CCCCC3)CC2)cc1)N1CC(c2cccnc2)C1` [Example 177, N-{4-[1-(cyclohexylcarbonyl)piperidin-4-yl]phenyl}-3-(pyridin-3-yl)azetidine-1-carboxamide], in that order: 74 nM, 0.304 nM and 15.8 nM.
On to `O=C(Nc1ccc(C2CN(C(=O)[C@@H]3CCCO3)C2)cc1)N1CC(c2cccnc2)C1` [Example 102, 3-(pyridin-3-yl)-N-(4-{1-[(2S)-tetrahydrofuran-2-ylcarbonyl]azetidin-3-yl}phenyl)azetidine-1-carboxamide], for which the results for the IC50 with PC3 cells, at NAMPT [1] and on NAMPT [2] were 67.9 nM, 0.286 nM and 95.7 nM, respectively.
With `O=C(CC1C[C@@H]2CC[C@H]1C2)N1CCC(c2ccc(NC(=O)N3CC(c4cccnc4)C3)cc2)CC1` (stereo partly drawn) [Example 165, N-(4-{1-[(1S,4R)-bicyclo[2.2.1]hept-2-ylacetyl]piperidin-4-yl}phenyl)-3-(pyridin-3-yl)azetidine-1-carboxamide], the values for the IC50 in the test with PC3 cells, at NAMPT [1] and at NAMPT [2] were 61.9 nM, 0.389 nM and 14.4 nM, respectively.
For `CCOCC(=O)N1CC(Oc2ccc(NC(=O)N3CC(c4cccnc4)C3)cc2)C1` [Example 119, N-(4-{[1-(ethoxyacetyl)azetidin-3-yl]oxy}phenyl)-3-(pyridin-3-yl)azetidine-1-carboxamide], in that order: 76.9 nM, 0.978 nM and 117 nM.
For `O=C(Nc1ccc(OC2CCN(C(=O)C3CC3)CC2)cc1)N1CC(c2cccnc2)C1` [Example 47, N-(4-{[1-(cyclopropylcarbonyl)piperidin-4-yl]oxy}phenyl)-3-(pyridin-3-yl)azetidine-1-carboxamide], the IC50 is 64 nM in the test with PC3 cells, 0.268 nM at NAMPT [1] and 30.3 nM at NAMPT [2].
For `CC(C)(C)OC(=O)N1CCC(c2ccc(NC(=O)N3CC(c4cnccc4Cl)C3)cc2)CC1` [Example 113, tert-butyl 4-[4-({[3-(4-chloropyridin-3-yl)azetidin-1-yl]carbonyl}amino)phenyl]piperidine-1-carboxylate], in that order: 113 nM, 14.7 nM and 75.8 nM.
For `CC(C)(O)C(=O)N1CCC(c2ccc(NC(=O)N3CC(c4cccnc4F)C3)cc2)CC1` [Example 156, 3-(2-fluoropyridin-3-yl)-N-{4-[1-(2-hydroxy-2-methylpropanoyl)piperidin-4-yl]phenyl}azetidine-1-carboxamide], in that order: 74.7 nM, 0.237 nM and 2.71 nM.
